Earlier results on nine compounds are cited in US20060045865A1, “Controlled regional oral delivery” (Spherics, Inc., priority 2004, published 2006).

Like-named read-outs stand apart in the source and are kept apart here. Where only a bound is given, the exact number is not on record here.

Test in data set [1]: not given
The source holds these as a separate data set.

In the next data set the test system is H. pylori. As to conditions: pH 5.5.

In the case of “1-[(4R,5s)-5-[(2-aminoethyl)amino]-N^2-(10,12-dimethyl-1-oxotetradecyl)-4-hydroxy-L-ornithine]-5-[(3IRI)-3-hydroxy-L-ornithine]pneumocandin B0 diacetate (salt) [Caspofungin acetate]”, the Solubility in water result is “freely soluble”. The Bioavailability in data set [1] (oral) is recorded as 0%.
With `Nc1nc2c(ncn2COCCO)c(=O)[nH]1` [Acyclovir, 2-amino-1,9-dihydro-9-[(2-hydroxyethoxy)methyl]-6H-purin-6-one], the Bioavailability in data set [1] (oral) is given as 10-20%.
For `NC(=O)N1c2ccccc2C=Cc2ccccc21` [Carbamazepine, 5H-dibenz[b,f]azepine-5-carboxamide], in data set [1] (in vivo, po), the Bioavailability was 89%.
As for `C#C[C@]1(O)CC[C@H]2[C@@H]3CCC4=Cc5oncc5C[C@]4(C)[C@H]3CC[C@@]21C` [Danazol, 17a-Pregna-2,4-dien-20-yno[2,3-d]-isoxazol-17-ol], the Half-life in data set [1] (oral administration) is 4 to 5 h. Besides, the “Time to peak plasma concentration” value in data set [1] (oral dose) was at most 2 h.
In the case of `NCC1(CC(=O)O)CCCCC1` [Gabapentin], in data set [1] (900 mg dose, given three times a day), the Bioavailability is on record as at most 60%.
Take `CC(=O)O[C@H]1C(=O)[C@@]2(C)[C@H]([C@H](OC(=O)c3ccccc3)[C@]3(O)C[C@H](OC(=O)[C@H](O)[C@@H](NC(=O)c4ccccc4)c4ccccc4)C(C)=C1C3(C)C)[C@]1(OC(C)=O)CO[C@@H]1C[C@@H]2O` [Paclitaxel]: the Solubility in water entry is “insoluble”.
For the compound `C=CC[C@@H]1/C=C(\C)C[C@H](C)C[C@H](OC)[C@H]2O[C@@](O)(C(=O)C(=O)N3CCCC[C@H]3C(=O)O[C@H](/C(C)=C/[C@@H]3CC[C@@H](O)[C@H](OC)C3)[C@H](C)[C@@H](O)CC1=O)[C@H](C)C[C@@H]2OC` [Tacrolimus], the Solubility in water entry is given as “practically insoluble”. The Absolute bioavailability entry in data set [1] (5 mg dose taken twice a day) is “approximately 17%”.
Regarding `CC(C)[C@H](N)C(=O)OCCOCn1cnc2c(=O)[nH]c(N)nc21` [Valacyclovir], the Solubility in water entry was “greater solubility in water than acyclovir”. Besides, in data set [1] (oral), the Bioavailability entry is reported as “approximately 50%”.
Take `CC[C@H]1OC(=O)[C@H](C)[C@@H](O[C@H]2C[C@@](C)(OC)[C@@H](O)[C@H](C)O2)[C@H](C)[C@@H](O[C@@H]2O[C@H](C)C[C@H](N(C)C)[C@H]2O)[C@](C)(OC)C[C@@H](C)C(=O)[C@H](C)[C@@H](O)[C@]1(C)O` [clarithromycin]: the Decrease in activity in the data set with H. pylori was over 16 fold.
